Patent US8835644B2, “Broad spectrum benzothiophene-nitrothiazolide and other antimicrobials” (University of Virginia Patent Foundation, priority 2009, dated 2014)
In brackets after ≈: the same amount, converted by molar mass. Like-named read-outs stand apart in the source and are kept apart here.

How the values were obtained:
[1] = tested on: H. pylori; assay: MIC testing by broth dilution, H. pylori; format: cell-based, Helicobacter pylori
Method: (§1) A standard broth dilution protocol was used in 96 well microplates containing a standard dilution of the microorganism to be tested in 100 microliters of the appropriate medium. Appropriate medium: E. coli, LB medium; Staphylococcus strains, Trypticase Soy; and for H. pylori and C. jejuni, Brain Heart Infusion. The compounds to be tested were set at 32 μg/ml in 200 microliters in well one and then serially diluted to provide a range from 32 to 0.06. The wells were scored visually at 24 h. The well where there was no growth was recorded as the MIC. Clostridium difficile was tested by agar diffusion and disk diffusion (Kirby Bower) methods under anaerobic conditions on Wilkins Chalgrin agar. In these assays, zone of inhibited growth was measured and compared by relative ratio to the zone recorded for NTZ.
(§2) Representative compounds of the invention were tested in a series of assays against a series of organisms as described above. […] The organisms tested include, C. difficile, H. pylori, C. jejuni, MRSA, S. epidermidis, and E. coli. S. epidermidis and E. coli were tested in the plank and biofilm assay. A disk diffusion assay was also used for C. difficile. Direct PFOR enzyme assays were also performed. All analogues and derivatives were not tested on every organism in every type of assay (the “-” in each table means that it was not tested).

[2] = tested on: C. jejuni; assay: MIC testing by broth dilution, C. jejuni; format: cell-based, Campylobacter jejuni
Method: as §1, §2

[3] = tested on: MRSA; assay: MIC testing by broth dilution, MRSA; format: cell-based, Staphylococcus aureus
Method: as §1, §2

[4] = tested on: S. epidermidis; assay: MIC testing by broth dilution, S. epidermidis plank; format: cell-based, Staphylococcus epidermidis
Method: as §1, §2

[5] = tested on: E. coli; assay: MIC testing by broth dilution, E. coli plank; format: cell-based, Escherichia coli
Method: as §1, §2

[6] = tested on: C. difficile; assay: Disk diffusion (Kirby Bower), C. difficile; format: cell-based, Clostridium difficile; settings: for Disk Diffusion (%) C. difficile: zone of inhibited growth as relative ratio to the zone for NTZ; for Disk Diff (%) C. difficile: Nitazoxanide = 100
Method: as §1, §2

[7] = tested on: E. coli biofilm; assay: E. coli biofilm assay (activity tables); format: cell-based, Escherichia coli; settings: biofilm; read-out: MIC (μM) E. coli Biofilm
Method: A quantitative biofilm assay was used to determine the effect of NTZ on biofilm formation (41). Strain 042 was grown overnight at 37° C. with shaking and inoculated 1:100 in 200 μl culture medium in Costar 96-well, flat-bottom, polystyrene microtiter plates containing appropriate concentrations of NTZ. Plates were incubated statically at 37° C. in a humidified incubator. At 24 h, bacterial growth was measured by either transferring […] aliquots to another microtiter plate to determine turbidity or by diluting 100 μl aliquots 1:100 in 9.9 ml PBS for quantitative plate counts on LB medium. Bacterial counts in triplicate are reported as cfu/ml. Biofilm was visualized following staining with 0.5% crystal violet (41) and the absorbance was read at 570 nm using a microplate reader (Molecular Dynamics). All experiments were in triplicate and reported as mean and standard deviation.
as §1, §2

[8] = broth dilution, Brain Heart Infusion, 24 h, read-out: MIC (μM) H. pylori
[9] = broth dilution, Brain Heart Infusion, 24 h, read-out: MIC (μM) C. jejuni
[10] = broth dilution, Trypticase Soy, 24 h, read-out: MIC (μM) MRSA
[11] = broth dilution, Trypticase Soy, 24 h, read-out: MIC (μM) S. epidermidis Plank
[12] = broth dilution, LB medium, 24 h, read-out: MIC (μM) E. coli Plank
[13] = Helicobacter pylori, broth dilution, Brain Heart Infusion, 24 h, read-out: MIC (μM) H. pylori
[14] = Campylobacter jejuni, broth dilution, Brain Heart Infusion, 24 h, read-out: MIC (μM) C. jejuni
[15] = Staphylococcus aureus, MRSA, broth dilution, Trypticase Soy, 24 h, read-out: MIC (μM) MRSA
[16] = Staphylococcus epidermidis, broth dilution, Trypticase Soy, 24 h, read-out: MIC (μM) S. epidermidis Plank
[17] = Escherichia coli, broth dilution, LB medium, 24 h, read-out: MIC (μM) E. coli Plank
[18] = Helicobacter pylori, 24 h, read-out: MIC (μM) H. pylori
[19] = Campylobacter jejuni, 24 h, read-out: MIC (μM) C. jejuni
[20] = Staphylococcus aureus, MRSA, 24 h, read-out: MIC (μM) MRSA
[21] = Staphylococcus epidermidis, 24 h, read-out: MIC (μM) S. epidermidis Plank
[22] = Escherichia coli, 24 h, read-out: MIC (μM) E. coli Plank

SMILES	MIC [1, 8] [µM]	MIC [2, 9] [µM]	MIC [3, 10] [µM]	MIC [4, 11] [µM]	MIC [5, 12] [µM]	Disk Diffusion (%) C. difficile [6] [%]	also measured
O=C(NCCOc1ccccc1C(=O)Nc1ncc([N+](=O)[O-])s1)Nc1ccccc1 [VPC162048]	0.4 (≈ 0.171 µg/mL)	74.9 (≈ 32 µg/mL)	74.9 (≈ 32 µg/mL)	74.9 (≈ 32 µg/mL)	74.9 (≈ 32 µg/mL)	31	
CC(C)(C)OC(=O)COc1ccccc1C(=O)Nc1ncc([N+](=O)[O-])s1 [VPC162035, tert-butyl 2-(2-(5-nitrothiazol-2-ylcarbamoyl)phenoxy)acetate]						0	MIC [1, 13]: 1 µM (≈ 0.379 µg/mL); MIC [2, 14]: 84.4 µM (≈ 32 µg/mL); MIC [3, 15]: 84.3 µM (≈ 32 µg/mL); MIC [4, 16]: 84.3 µM (≈ 32 µg/mL); MIC [5, 17]: 84.3 µM (≈ 32 µg/mL)
O=C(Nc1ccccc1)c1ncc([N+](=O)[O-])s1 [VPC161232]						0	MIC [1, 13]: 6 µM (≈ 1.5 µg/mL); MIC [2, 14]: 8 µM (≈ 1.99 µg/mL); MIC [3, 15]: 32.1 µM (≈ 8 µg/mL); MIC [4, 16]: 16 µM (≈ 3.99 µg/mL); MIC [5, 17]: 128 µM (≈ 32 µg/mL)
NCCCCOc1ccccc1C(=O)Nc1ncc([N+](=O)[O-])s1.O=C(O)C(F)(F)F [VPC162096TFA]	1.7	6.7	71.0	35.5	71.0	111	
CC(C)(C)OC(=O)N1CCC(C(=O)NCCOc2ccccc2C(=O)Nc2ncc([N+](=O)[O-])s2)CC1 [VPC162059]	0.7 (≈ 0.364 µg/mL)	61.6 (≈ 32 µg/mL)	61.6 (≈ 32 µg/mL)	61.6 (≈ 32 µg/mL)	61.6 (≈ 32 µg/mL)	38	
O=C(Nc1ncc([N+](=O)[O-])s1)c1cc2ccccc2[nH]1 [VPC16b1031, N-(5-Nitrothiazol-2-yl)-1H-indole-2-carboxamide]						75	MIC [1, 18]: 6.9 µM (≈ 1.99 µg/mL); MIC [2, 19]: 13.9 µM (≈ 4.01 µg/mL); MIC [3, 20]: 27.8 µM (≈ 8.01 µg/mL); MIC [4, 21]: 13.9 µM (≈ 4.01 µg/mL); MIC [5, 22]: 111 µM (≈ 32 µg/mL)
O=C(CCCc1ccccc1)Nc1ncc([N+](=O)[O-])s1 [VPC16a1020]	13.8 (≈ 4.02 µg/mL)	2.6 (≈ 0.757 µg/mL)	109.8 (≈ 32 µg/mL)	109.8 (≈ 32 µg/mL)	109.8 (≈ 32 µg/mL)	33 ± 3	MIC [7]: 54.9 µM (≈ 16 µg/mL)
CC(C)(C)OC(=O)Nc1ccccc1C(=O)Nc1ncc([N+](=O)[O-])s1 [VPC162047, tert-Butyl 2-(5-nitrothiazol-2-ylcarbamoyl)phenylcarbamate]						83	MIC [1, 18]: 0.3 µM (≈ 0.109 µg/mL); MIC [2, 19]: 27.4 µM (≈ 9.98 µg/mL); MIC [3, 20]: 5.5 µM (≈ 2 µg/mL); MIC [4, 21]: 5.5 µM (≈ 2 µg/mL); MIC [5, 22]: 87.8 µM (≈ 32 µg/mL)
CC(=O)NCCOc1ccccc1C(=O)Nc1ncc([N+](=O)[O-])s1 [VPC162044]	1.1 (≈ 0.385 µg/mL)	34.3 (≈ 12 µg/mL)	91.3 (≈ 32 µg/mL)	22.8 (≈ 7.99 µg/mL)	91.3 (≈ 32 µg/mL)	77	
O=C(Nc1ncc([N+](=O)[O-])s1)c1cc2ccc(F)cc2s1 [VPC162037]							MIC ([1]; Thiophene analogues table, read-out: MIC H. pylori): 3.1 µM (≈ 1 µg/mL); MIC ([2]; Thiophene analogues table, read-out: MIC C. jejuni): 6.2 µM (≈ 2 µg/mL); MIC ([3]; Thiophene analogues table, read-out: MIC MRSA): 61.9 µM (≈ 20 µg/mL); MIC ([4]; planktonic, Thiophene analogues table, read-out: MIC S. epidermidis Plank): 49.5 µM (≈ 16 µg/mL); MIC ([5]; planktonic, Thiophene analogues table, read-out: MIC E. coli Plank): 99.0 µM (≈ 32 µg/mL); Disk Diff (%) C. difficile ([6]; Thiophene analogues table): 70%
NCCOc1ccccc1C(=O)Nc1ncc([N+](=O)[O-])s1.O=C(O)C(F)(F)F [VPC161219TFA]	1.88	14.2	75.8	75.8	75.8	81	
Cl.NCCCCOc1ccccc1C(=O)Nc1ncc([N+](=O)[O-])s1 [VPC162096HCl]	2.0	5.4	85.8	42.9	85.8	111	
NCCCOc1ccccc1C(=O)Nc1ncc([N+](=O)[O-])s1.O=C(O)C(F)(F)F [VPC162102TFA]	0.9	13.8	73.3	73.3	73.3	79	
O=C(Nc1ncc([N+](=O)[O-])s1)c1cc2cc([N+](=O)[O-])ccc2o1 [VPC16a1019]							MIC ([1]; Furan analogues table, read-out: MIC H. pylori): 4.5 µM (≈ 1.5 µg/mL); MIC ([2]; Furan analogues table, read-out: MIC C. jejuni): 4.5 µM (≈ 1.5 µg/mL); MIC ([3]; Furan analogues table, read-out: MIC MRSA): 47.9 µM (≈ 16 µg/mL); MIC ([4]; planktonic, Furan analogues table, read-out: MIC S. epidermidis Plank): 23.9 µM (≈ 7.99 µg/mL); MIC ([5]; planktonic, Furan analogues table, read-out: MIC E. coli Plank): 95.7 µM (≈ 32 µg/mL); Disk Diff (%) C. difficile ([6]; Furan analogues table): 77%
O=C(CCc1ccccc1)Nc1ncc([N+](=O)[O-])s1 [VPC16b1030]	0.3 (≈ 0.0832 µg/mL)	1.30 (≈ 0.36 µg/mL)	115.4 (≈ 32 µg/mL)	14.4 (≈ 3.99 µg/mL)	115.4 (≈ 32 µg/mL)	54.5 ± 0.5	MIC [7]: 50.5 µM (≈ 14 µg/mL)
CS(=O)(=O)NCCOc1ccccc1C(=O)Nc1ncc([N+](=O)[O-])s1 [VPC162045]	0.6 (≈ 0.232 µg/mL)	51.8 (≈ 20 µg/mL)	82.8 (≈ 32 µg/mL)	62.1 (≈ 24 µg/mL)	82.8 (≈ 32 µg/mL)	51	
Nc1ccccc1C(=O)Nc1ncc([N+](=O)[O-])s1 [VPC162055]	2.4 (≈ 0.634 µg/mL)	11.4 (≈ 3.01 µg/mL)	121.1 (≈ 32 µg/mL)	90.8 (≈ 24 µg/mL)	45.4 (≈ 12 µg/mL)	83	
